Source: US9074019B2, “Methods, systems, and compositions for calpain inhibition” (HENRY FORD HEALTH SYSTEMS, priority 2008, dated 2015)
Several values for one entry are separate records, joined by “and”; a condition that tells them apart may be missing. Equal values may be shown once. Entries after “also recorded” stand apart in the source; their conditions may differ. Square brackets hold non-standard residues; d marks the D form. Ends that are not written are not given here. βAla = NCCC(=O)O

How the values were obtained:
[1] = system: focal cerebral ischemia (2 hour MCAO); test: Infarct volume after 2 hour middle cerebral artery occlusion (MCAO) in rats; type: in vivo, male Wistar rats; settings: for infarct volume: 3 mg/kg i.v. 4 h, mean±SEM, no unit printed in this block, in %; for Lesion Volume % of Hemisphere (percent hemispheric infarct volume): 3 mg/kg i.v. infusion for 4 h after reperfusion, mean ± SE, n=9, 3 mg/kg
Excerpt: (§1) We developed our peptidomimetic inhibitors of calpain by rational and systematic chemical modifications of the amide bond and/or side chain functionalities of permutations of SEQ ID NO: 2, followed by calpain-inhibitory kinetic measurements of the designed molecules in vitro as well as an assessment of their ability to improve neurological recovery in vivo after focal cerebral ischemic in rats. The structural modifications performed to create the peptidomimetics included, without limitation, amino acid replacements by chemical mutagenesis, amide bond mimics, methylene group insertion between the α-carbon and the carbonyl functionalities of individual amino acids, replacement of natural amino acid side chains with non-natural moieties, and amino acid side chain cyclizations. Calpain-inhibitory activity of the peptidomimetics was measured by steady-state and stopped-flow enzyme inhibition kinetic studies using purified calpain and natural protein or synthetic fluorogenic peptide substrates. The effect of the peptidomimetics on cerebral infarction, cerebral endothelial function and neurological functional recovery after ischemic stroke was assessed using a rat model of 2 hour middle cerebral artery (“MCAO”) ischemia.
(§2) Based on our studies, we selected and further tested SEQ ID NO: 5 for its cerebroprotective capacity after 2 hour middle cerebral artery (“MCAO”) ischemia in the Two hour MCAO by the suture method was induced in 21 male Wistar rats. […] Animals survived 7 days and neurological testing (score 0-3, 3 being the most severe) was performed. After sacrifice the brain samples were formalin fixed and infarct volumes were calculated using standard computerized image analysis. Independent t-test was used for statistical analysis.
(§3) Following an institutionally approved animal care protocol, male Wistar rats (270-290 g) were obtained from Charles River Breeding Co. (Wilmington, Mass., USA). Two-hour middle cerebral artery occlusion (MCAO) by the intravascular suture method, drug infusion, measurement of infarct volume and neurological deficits were performed as detailed previously.
(§4) SEQ ID NO: 5 (50 μM solution, i.v. infusion at 15 μl/min for 4 h; 3 mg/kg), SEQ ID NO: 13 or vehicle (1% DMSO in saline) was administered to rats […] (n=6-9) immediately after reperfusion following 2 h of MCAO. Sham-operated animals had surgery but no MCA occlusion. Animals to be studied for neurological score and infarct volume survived 7 days.
From the H&E sections, the ischemic core area with diffuse pallor of the eosinophilic background and the border area with vacuolation or sponginess and neutrophils can be identified under the microscope. […] The subcortical region in the core slices of C and D is also affected (white arrows). The ischemic damage (i.e. cell death, loss of tissue, or encephalomalacia) is less in the SEQ ID NO: 5-treated animals compared to the vehicle-treated controls. By comparison, the contralateral side appeared undamaged by both gross inspection and in histological sections.

purified calpain = test: Calpain-inhibitory activity (steady-state and stopped-flow enzyme inhibition kinetics); type: biochemical; settings: in words
Excerpt: as §1, §4

[2] = system: endothelial nitric oxide synthase (eNOS); test: eNOS phosphorylation in brain after MCAO (Western blotting); type: in vivo, male Wistar rats
Description: (§5) Two-hour middle cerebral artery occlusion (MCAO) was used to induce ischemic stroke in Male Wistar rats. SEQ ID NO: 5 was given intravenously to rats immediately after reperfusion following 2 h of MCAO, while control animals had infusion of vehicle solution (n=6-9). Animals to be studied for neurological score and infarct volume survived 7 days, and neurological testing (mNSS and corner turn) were performed at 1, 4, and 7 days after MCAO. In another set of experiments, the animals were sacrificed at 48 h, and histology was performed for BBB integrity (albumin and fibrin leakage from the cerebral microvasculature into brain parenchyma). Phosphorylation of endothelial nitric oxide synthase (eNOS) was analyzed by Western blotting with specific antibodies raised against synthetic phosphorylated peptides representing known eNOS phosphorylation sites.
C: Graphical representation of the ratio of upper:lower phospho-eNOS protein band intensities (n=6 rats/experimental group).

[3] = system: focal cerebral ischemia (2 hour MCAO); test: Neurological score after 2 hour MCAO in rats; type: in vivo, male Wistar rats; settings: for Neurological Score 0 Day: score 0-3 (3 most severe), day 0; for Neurological Score 1 Day: day 1
Description: as §2, §3, §4
Neurological scores have been previously defined as follows: no observable deficit=0, forelimb flexion=1, decreased resistance to lateral push with forelimb flexion=2, same behavior as 2 plus circling=3. […] However, the difference in performance between the SEQ ID NO: 5-treated animals and the vehicle controls (1.00±0.17 vs. 1.78±0.22, *P<0.05, n=9 per group; independent t-test) and the SEQ ID NO: 13-treated group (1.00±0.17 vs. 1.44±0.18, #P<0.05, n=9 per group; independent t-test) was statistically significant at day 7 post-injury.
We assessed functional outcome as an endpoint of our evaluation by the method of Bederson et al. Treatment with SEQ ID NO: 5 immediately after 2-h MCAO reduced neurological deficits by 24% and 44% on day 4 and day 7, respectively, compared to vehicle-treated stroke controls. Infarct volume was a secondary outcome and was measured at day 7 after stroke. The extent of cerebral infarction was reduced by 35% in the SEQ ID NO: 5-treated animals compared to vehicle-treated animals Due to the predictable location of areas of infarction and consistent production of neurological deficits in the MCAO model used in this study, the effects of SEQ ID NO: 5 on neurological outcome and size of infarction produced by focal cerebral ischemia could be reliably studied. It must be noted, however, that, infarction volumes could correlate poorly with functional outcome because small lesions in cortical locations can produce major functional deficits. Conversely, large lesions in relatively silent areas cause little detectable function loss. Reduction of neurological deficits after stroke has been attributed to synaptic and functional reorganization in the cerebral cortex and in subcortical structures after ischemic injuries.
as §5

[4] = system: calpain-mediated cleavage of αII-spectrin; test: Western blot of αII-spectrin breakdown products (SBDPs) in rat brain following MCAO; type: in vivo, male Wistar rats
Description: Following MCAO and drug infusion, the animals were sacrificed after 24 or 48 h of survival. At that time, the brains were extracted and separated into right and left, cortical and subcortical regions, snap-frozen in liquid nitrogen and stored at −80° C. until used. For Western blot analysis, the brain samples were pulverized to a fine powder with a small mortar and pestle set over dry ice. The pulverized brain tissue powder was homogenized in a solution of 0.25 M sucrose, […] 2-(N-morpholino)-ethanesulfonic acid, 1 mM EDTA, pH 6.5, containing 0.025 mM E-64, 2.0 mM AEBSF, 0.5 mM PMSF, 0.02 mM leupeptin, 0.05 mM pepstatin, and 0.001 mM aprotinin (homogenization buffer) at 4° C. in a Potter-Elvehjem homogenizer. T homogenates were then centrifuged at 4° C. for 20 min at 16,000 g. Aliquots of the supernatant were stored at −80° C. until used for experiments. Protein concentrations were determined using micro BCA Protein Assay kit (Pierce, Rockford, Ill.). SDS-PAGE was carried out according to Laemmli and immunoblots were performed according to the technique of Towbin et al. Mouse monoclonal ant II-spectrin antibody (MAB 1622, 1:1,000) and horse radish peroxidase (HRP)-conjugated goat anti-mouse IgG (AP124P, 1:10,000) were from Chemicon (Temecula, Calif.). Labeled proteins were detected with the enhanced chemiluminescence method according to the manufacturer's instructions (GE Healthcare Biosciences, Piscataway, N.J., USA). Bands were quantified by densitometry using Gel-Doc 2000 (Bio-Rad, Richmond, Va.) and the free open source software ImageJ.
Pathologic activity of calpain and in vivo efficacy of SEQ ID NO: 5 were assessed by Western blot analysis of all-spectrin breakdown products (SBDPs) generated in the rat brain following MCAO. […] (E) Densitometric analysis of SBDP150/SBDP145 levels in ipsilateral cortex and subcortex at 24 and 48 h following MCAO.

BBB integrity = BBB integrity (albumin and fibrin leakage into brain parenchyma) after MCAO; type: in vivo, male Wistar rats
Description: as §5, with “sites. […] Shown are representative immunoblots of RSA levels in the ipsilateral cortical (A) and subcortical (B) regions of sham-operated, ischemic vehicle-treated, and ischemic. C, Densitometric analysis of RSA levels in ipsilateral cortex and subcortex (*p<0.05 vs vehicle; n=6) at 24 h following MCAO. […] Representative fluorescent micrographs of fibrin deposition outside the cerebral microvasculature of untreated (MCAO, panel A) and treated (+SEQ ID NO: 5, panel B) rats subjected to 2 hour MCA occlusion with reperfusion and 48 hour survival are shown. A schematic representation of a coronal brain section showing eight fields selected from the ischemic boundary zone (IBZ) for quantitative measurements of immunochemical staining for fibrin in the cortex and striatum is shown (panel C).” for “sites.”

[5] = rat 2-h MCAO, 3 mg/kg i.v. 4 h, mean ± SE, n=9
[6] = rat 2-h MCAO, 3 mg/kg i.v. 4 h, score 0-3, mean ± SE, n=9
[7] = rat 2-h MCAO, 3 mg/kg i.v. 4 h, score 0-3, mean ± SE, n=9, day 4

Substance: DPMSSTYIEELGKREVTIPPKYVALLPAVLLALLAP [SEQ ID NO: 5]
- ischemic damage (cell death, loss of tissue, encephalomalacia) in H&E sections ([1]; FIG. 3, compared to vehicle-treated controls): less
- infarct volume ([1]; rat 2-h MCAO, day 7): 24.9±3.8
- Lesion Volume % of Hemisphere (percent hemispheric infarct volume) ([1]; rat 2-h MCAO, day 7): 24.9±3.8 % of Hemisphere and 24.9 ± 3.8*^,# % of Hemisphere
- reduction of infarct volume (extent of cerebral infarction) compared to vehicle-treated animals ([1]; rat 2-h MCAO, day 7): 35%
- calpain inhibitory activity (purified calpain): potent
- specificity for calpain (purified calpain): specific inhibitor of calpain
- eNOS phosphorylation state (eNOS-Ser633, ratio of upper:lower band) ([2]; FIG. 7, n=6 rats/group): modulates eNOS phosphorylation state
- eNOS threonine-495 phosphorylation in the brain after stroke ([2]; post-injury treatment, FIG. 8): significantly reduced; also recorded: induces eNOS-Thr495 dephosphorylation
- improving neurological recovery ([3]; 50 micromolar solution via femoral vein for 4 hours after reperfusion, total dose 3 mg/kg): effective
- Neurological Score 0 Day [3, 5]: 2.89 ± 0.11
- Neurological Score 1 Day [3, 6]: 2.33 ± 0.24
- Neurological Score 4 Days [3, 7]: 1.44 ± 0.18
- reduction of neurological deficits compared to vehicle-treated stroke controls, day 4 ([3]; rat 2-h MCAO, treatment immediately after MCAO, day 4): 24%
- reduction of neurological deficits compared to vehicle-treated stroke controls, day 7 ([3]; rat 2-h MCAO, treatment immediately after MCAO, day 7): 44%
- calpain-mediated cleavage of αII-spectrin in rat brain following MCAO ([4]; FIG. 4, 24 h and 48 h): blocks calpain-mediated cleavage of αII-spectrin
- SBDP145 levels at 48 h post-injury ([4]; cortical and subcortical regions, 48 h after MCAO, P<0.05 vs. vehicle, n=6): significantly reduced SBDP145 levels
- SBDP150 and SBDP145 formation at 24 h post-injury ([4]; ipsilateral cortex and subcortex, 24 h after MCAO): blocked SBDP150 and SBDP145 formation to basal levels; also recorded: completely blocked SBDP145 accumulation
- toxicity to cultured cells (cultured cells): non-toxic to cultured cells
- BBB integrity as assessed by albumin and fibrin extravasation (BBB integrity; 48 h, compared to controls): significant improvement
- rat serum albumin (RSA) leakage into the ischemic brain parenchyma (BBB integrity; FIG. 5, ipsilateral cortex and subcortex, 24 h following MCAO, p<0.05 vs vehicle, n=6): reduces rat serum albumin (RSA) leakage
- fibrin deposition outside the cerebral microvasculature (BBB integrity; FIG. 6, 2 hour MCA occlusion with reperfusion and 48 hour survival): decreases fibrin deposition outside the cerebral microvasculature

Substance: DPMSSTYIEE[βAla]GKREVTIPPKYVALLPAVLLALLAP [SEQ ID NO: 13, reference compound]
- infarct volume ([1]; rat 2-h MCAO, day 7): 33.8±4.2
- Lesion Volume % of Hemisphere (percent hemispheric infarct volume) ([1]; rat 2-h MCAO, day 7): 33.8±4.2 % of Hemisphere
- calpain inhibitory activity (purified calpain): less active
- calpain inhibitory activity (purified calpain; listed as SEQ ID NO: 5-βAla): inactive
- Neurological Score 0 Day [3, 5]: 2.89 ± 0.11
- Neurological Score 1 Day [3, 6]: 2.11 ± 0.20
- Neurological Score 4 Days [3, 7]: 1.56 ± 0.18
- Neurological Score 7 Days ([3]; rat 2-h MCAO, 3 mg/kg i.v. 4 h, score 0-3, mean ± SE, n=9, day 7, 3 mg/kg): 1.44±0.18
